Measured values: patent publication US8367332B2, “Detection and quantification of abasic site formation in vivo” (Case Western Reserve University, priority 2008, dated 2013)

Key:
AP sites [1] = experiment: In vivo blocking experiment with unlabelled MX (microPET, glioma tumors); set-up: species or system mice; settings: TMZ 80 mg/kg; unlabelled MX 2-10 mg/kg 30 min before [^11C]MX 2 mCi/kg; p value=0.003
Protocol: FIG. 4 illustrates; (A) plots of time-radioactivity courses of [^11C]MX in the glioma tumors before and after blocking by unlabelled MX; and (B) a graph showing average SUV between 0-60 min (n=4, where n is the number of tumors imaged and analyzed). Decrease of radioactivity concentration indicates in vivo blocking of AP binding sites by unlabeled MX (p value=0.003).
Thus, we conducted in vivo blocking experiment in tumor mice with unlabelled MX as a further test of whether the difference in radioactivity concentrations between TMZ-treated and untreated tumors is due to specific binding of [^11C]MX to AP sites. For this purpose, 4 tumor-bearing mice were treated with TMZ (80 mg/kg) for 10 min. Following the treatment, two mice were injected with unlabelled MX (2-10 mg/kg) and two were injected with vehicle control. Thirty minutes later, 2 mCi/kg of [^11C]MX was administered to each mouse and microPET imaging was performed. In each case, a vehicle-treated and an unlabeled MX-treated mouse were imaged side-by-side. Dynamic acquisition was carried out for 60 min in list mode.

AP sites [2] = experiment: ARP assay of AP sites in A375 melanoma cells; format: cell-based; settings: 12.5 mM co-treatment with TMZ, 24 hr
Protocol: FIG. 5 illustrates a graph showing AP sites increased in melanoma cells (A375) after treatment with TMZ in a dose-dependent manner. Using ARP assay, formation of AP sites in A375 melanoma cells were measured. Cells were treated with TMZ (0-1500 μM) alone or TMZ plus MX (12.5 mM) for 24 hr for a dose-dependent assay (black), or treated with TMZ and MX (12.5 mM) for 24 hr, or treated with TMZ and F422 (12.5 mM) for 24 hours.

AP sites [3] = experiment: microPET of [^11C]MX in flank glioma (U87) xenografts, TMZ-treated vs non-treated; format: in vivo, mice; settings: flank glioma xenograft; TMZ 80 mg/kg; 60 min scan
Protocol: (§1) Melanoma and glioma xenografts were prepared according to previously published procedures. Briefly, glioma (U87) and melanoma (WM164) tumor cells (5×10^6) were injected into the bilateral flanks of female athymic NRC nude mice (6-8 weeks of age). When the volume of tumor nodules reached 150-200 mm^3, mice are randomly assigned to control or treatment groups (4 mice/group).
Following MRI studies, the mice were transferred to a Concord R4 microPET scanner under anesthesia. The same holder was used for microPET studies so that the tumor positions of the mice remain unchanged in order to facilitate image coregistration with MRI. […] Body temperature in the anesthetized animals was monitored using a rectal temperature probe and maintained at 37+/−2° C. with a heating lamp or a heating pad.
Following MRI and microPET studies, we conducted quantitative image analysis in order to evaluate the in vivo pharmacokinetic profiles of [^11C]MX in tumor tissues. […] The co-registered images were used for quantitative image analysis to determine [^11C]MX uptake and retention associated with tumor tissues. The radioactivity concentration in the tumor regions is expressed in terms of standard uptake volume (SUV) [(μCi/cc)/(uCi/g)] as a function of time.
Malignant glioma is another type of cancer that can be effectively treated with TMZ because TMZ can readily penetrate the blood-brain barrier. […]

AP sites [4] = experiment: microPET of [^11C]MX in melanoma (WM164) xenografts, TMZ-treated vs non-treated; format: in vivo, mice; settings: melanoma xenograft
Protocol: as §1
Following MRI studies, the mice were transferred to a Concord R4 microPET scanner under anesthesia. The same holder was used for microPET studies so that the tumor positions of the mice remain unchanged in order to facilitate image coregistration with MRI. Subsequently, dynamic microPET scans were performed over 60 min in a list mode, immediately after a bolus injection of ca. 500 μCi of [^11C]MX via the tail vein. Body temperature in the anesthetized animals was monitored using a rectal temperature probe and maintained at 37+/−2° C. with a heating lamp or a heating pad.
Following MRI and microPET studies, we conducted quantitative image analysis in order to evaluate the in vivo pharmacokinetic profiles of [^11C]MX in tumor tissues. We defined the tumor tissues as the region of interest (ROI) through coregistration of microPET images with MRI images. The co-registered images were used for quantitative image analysis to determine [^11C]MX uptake and retention associated with tumor tissues. The radioactivity concentration in the tumor regions is expressed in terms of standard uptake volume (SUV) [(μCi/cc)/(uCi/g)] as a function of time.
Because TMZ, like dacarbazine, has been used in the treatment patients with metastatic malignant melanoma, we first conducted microPET studies in human (WM164) melanoma xenograft tumor model. In each experiment, two mice bearing melanoma xenografts were used, one treated with TMZ (80 mg/kg) to induce DNA damage and the other used as negative control. Prior to microPET scans, the mice were placed in a 7T MRI scanner and T2-weighted MRI images were acquired following the above-mentioned protocol. […]

Row | SMILES | concentration of tumor-associated radioactivity after blocking with unlabelled MX (AP sites [1]) | ARP detected AP sites on co-treatment with TMZ (AP sites [2]) | retention of [^11C]MX in tumor regions (AP sites [3]) | radioactivity concentration in tumor, TMZ-treated vs non-treated mice (AP sites [4]; TMZ 80 mg/kg, 10 min post injection of [^11C]MX (ca. 2 mCi/kg i.v.)) | tumor uptake of [^11C]MX in TMZ-treated vs non-TMZ treated mice (AP sites [4]; TMZ 80 mg/kg, 60 min scan) | entry of [^11C]MX into tumor tissue (AP sites [4]; i.v. ca. 2 mCi/kg, microPET)
1 | CON [MX, methoxyamine] | significantly decreased | reduced the ARP detected AP sites | – | – | – | –
2 | [11CH3]ON [[^11C]MX, (^11C)methoxyamine] | – | – | higher in TMZ-treated tumor regions than in non-treated tumor regions | 1.6 fold | increased uptake | readily entered the tumor tissue at early time points
